How the values were obtained:
Assay type in all cases: in vivo, SD rat
rodent stroke model [1] = assay: cylinder test in rodent stroke model; settings: Stroke+KDS2010: 10 mg/kg orally once a day, no rehabilitation; compared to the control group
Experimental: (§1) Light stimuli was applied to the posterior limb of the internal capsule of a 9 week-old SD rat to produce a white-matter cerebral infarction animal model.
(§2) Specifically, the animal was anesthetized with an anesthetic drug, a combination of ketamine (ketamine hydrochloride, 100 mg/kg) and xylazine (7 mg/kg), and a hole was drilled at a position of 2.0 mm rearwards and 3.1 mm laterally outwards from the skull bregma using stereotaxis, and an optical fiber (inner diameter of 62.5 μm, outer diameter of 125 μm) was inserted to a depth of 7.2 mm to target the posterior limb of the internal capsule. Rose bengal (20 mg/kg) was injected into the tail vein, and optical stimulation was conducted using a 3.7 mW green laser for 1.5 minutes through an optical fiber. Then, the optical fiber was removed and the operation was completed, ketoprofen (2 mg/kg) was injected for pain control, and then the animal was allowed to recover. The control group was injected with 0.9% saline, instead of rose bengal. […]
For the cylinder test, animals were placed in a transparent cylinder (20 cm in diameter and 30 cm in height) to observe which limb was used more when supporting the cylinder wall with the forelimbs. A total of 20 movements were recorded, and the ratio of the use of the forelimb corresponding to the stroke and the opposite forelimb was calculated during the total number of cycles.

rodent stroke model [2] = assay: single-pellet reaching task (SPRT) in rodent stroke model; settings: Stroke+rehab+KDS2010: 10 mg/kg orally once a day plus rehabilitation training; white-matter cerebral infarction rat model
Experimental: as §1, §2
For the single-pellet reaching task, an acrylic box (45 cm×13 cm×40 cm) having a 1 cm vertical slit on the front wall thereof was used, and a sugar pellet was placed in front of the slit. […] The proportion of the number of pellets remaining in the mouth, without dropping, to 20 pellets in total was calculated.

rodent stroke model [3] = assay: neurofiber staining, size of the infarction in an internal capsule; settings: 10 mg/kg orally once a day
Experimental: as §1
Specifically, the animal was anesthetized with an anesthetic drug, a combination of ketamine (ketamine hydrochloride, 100 mg/kg) and xylazine (7 mg/kg), and a hole was drilled at a position of 2.0 mm rearwards and 3.1 mm laterally outwards from the skull bregma using stereotaxis, and an optical fiber (inner diameter of 62.5 μm, outer diameter of 125 μm) was inserted to a depth of 7.2 mm to target the posterior limb of the internal capsule. Rose bengal (20 mg/kg) was injected into the tail vein, and optical stimulation was conducted using a 3.7 mW green laser for 1.5 minutes through an optical fiber. Then, the optical fiber was removed and the operation was completed, ketoprofen (2 mg/kg) was injected for pain control, and then the animal was allowed to recover. The control group was injected with 0.9% saline, instead of rose bengal.
Rats in the group administered with KDS2010 as a drug were orally administered with a solution of KDS2010 in saline at a concentration of 10 mg/kg once a day (FIG. 2A).
Rats in the rehabilitation-trained group practiced a single-pellet reaching task (SPRT) for 20 minutes daily for 3 weeks after stroke surgery. […]

## C[C@H](NCc1ccc(-c2ccc(C(F)(F)F)cc2)cc1)C(N)=O [KDS2010, (S)-2-(((4′-trifluoromethylbiphenyl-4-yl)methyl)amino)propanamide methanesulfonate]
Rodent stroke model [1]
  motor function using the cylinder test: significantly recovered motor function
Rodent stroke model [2]
  motor function through single-pellet reaching task: recovered motor function to an almost normal level
Rodent stroke model [3]; Stroke+KDS: drug-administered group, no rehabilitation, versus control group
  size of the infarction in the internal capsules: considerably larger size of the infarction
Rodent stroke model [3]; Stroke+rehab+KDS: rehabilitation training in combination with drug administration
  size of the infarction in the internal capsules: further reduced infarction sizes

Reference: US20210401782A1, “COMPOSITION FOR PREVENTING AND TREATMENT OF STROKE” (NEUROBIOGEN CO.,LTD, priority 2018, published 2021)
